Test results as given in publication PMC6348381, “Discovery of an MLLT1/3 YEATS Domain Chemical Probe” (Angewandte Chemie (International Ed. in English), 2018).

Tests used:
Assay type in all cases: binding
BAZ2B = target: T1, BAZ2B (Homo sapiens, UniProt Q9UIF8); test: Thermal shift assay, BAZ2B
T1 construct: purchased in-house (SGC bromodomain thermal shift / AlphaScreen panel)
Method: (§1) II.VII Thermal Shift Assay[6]
(§2) Thermal melting experiments were carried out using an Mx3005p Real Time PCR machine (Stratagene). Proteins were buffered in 10 mM HEPES pH 7.5, 500 mM NaCl and assayed in a 96-well plate at a final concentration of 2 μM in 20 μL volume. Compounds were added at a final concentration of 50 μM. SYPRO Orange (Molecular Probes) was added as a fluorescence probe at a dilution of 1:1000. Excitation and emission filters for the SYPRO-Orange dye were set to 465 nm and 590 nm, respectively. The temperature was raised with a step of 3 °C per minute from 25 °C to 96 °C and fluorescence readings were taken at each interval. The unfolding curves were fitted using the Boltzmann equation to determine the middle point of the transition.

BRD2(1) = target: T2, BRD2(1) (Homo sapiens, UniProt P25440); test: Thermal shift assay, BRD2(1)
T2 construct: BRD2(1); purchased in-house (SGC bromodomain thermal shift / AlphaScreen panel)
T2 sequence (P25440 71-194 limits assumed): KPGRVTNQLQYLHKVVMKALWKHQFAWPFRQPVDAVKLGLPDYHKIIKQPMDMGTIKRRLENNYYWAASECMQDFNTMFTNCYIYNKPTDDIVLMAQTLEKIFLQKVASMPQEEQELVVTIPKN

BRD3(2) = target: T3, BRD3(2) (Homo sapiens, UniProt Q15059); test: Thermal shift assay, BRD3(2)
T3 construct: BRD3(2); purchased in-house (SGC bromodomain thermal shift / AlphaScreen panel)
T3 sequence (Q15059 306-416 limits assumed): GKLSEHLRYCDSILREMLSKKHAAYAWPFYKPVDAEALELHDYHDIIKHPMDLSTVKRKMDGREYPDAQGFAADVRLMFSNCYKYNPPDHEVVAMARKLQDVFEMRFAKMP
Method: as §1, §2

BRD8 = target: T4, BRD8 (Homo sapiens, UniProt Q9H0E9); test: Thermal shift assay, BRD8
T4 construct: purchased in-house (SGC bromodomain thermal shift / AlphaScreen panel)
T4 sequence (Q9H0E9 whole entry): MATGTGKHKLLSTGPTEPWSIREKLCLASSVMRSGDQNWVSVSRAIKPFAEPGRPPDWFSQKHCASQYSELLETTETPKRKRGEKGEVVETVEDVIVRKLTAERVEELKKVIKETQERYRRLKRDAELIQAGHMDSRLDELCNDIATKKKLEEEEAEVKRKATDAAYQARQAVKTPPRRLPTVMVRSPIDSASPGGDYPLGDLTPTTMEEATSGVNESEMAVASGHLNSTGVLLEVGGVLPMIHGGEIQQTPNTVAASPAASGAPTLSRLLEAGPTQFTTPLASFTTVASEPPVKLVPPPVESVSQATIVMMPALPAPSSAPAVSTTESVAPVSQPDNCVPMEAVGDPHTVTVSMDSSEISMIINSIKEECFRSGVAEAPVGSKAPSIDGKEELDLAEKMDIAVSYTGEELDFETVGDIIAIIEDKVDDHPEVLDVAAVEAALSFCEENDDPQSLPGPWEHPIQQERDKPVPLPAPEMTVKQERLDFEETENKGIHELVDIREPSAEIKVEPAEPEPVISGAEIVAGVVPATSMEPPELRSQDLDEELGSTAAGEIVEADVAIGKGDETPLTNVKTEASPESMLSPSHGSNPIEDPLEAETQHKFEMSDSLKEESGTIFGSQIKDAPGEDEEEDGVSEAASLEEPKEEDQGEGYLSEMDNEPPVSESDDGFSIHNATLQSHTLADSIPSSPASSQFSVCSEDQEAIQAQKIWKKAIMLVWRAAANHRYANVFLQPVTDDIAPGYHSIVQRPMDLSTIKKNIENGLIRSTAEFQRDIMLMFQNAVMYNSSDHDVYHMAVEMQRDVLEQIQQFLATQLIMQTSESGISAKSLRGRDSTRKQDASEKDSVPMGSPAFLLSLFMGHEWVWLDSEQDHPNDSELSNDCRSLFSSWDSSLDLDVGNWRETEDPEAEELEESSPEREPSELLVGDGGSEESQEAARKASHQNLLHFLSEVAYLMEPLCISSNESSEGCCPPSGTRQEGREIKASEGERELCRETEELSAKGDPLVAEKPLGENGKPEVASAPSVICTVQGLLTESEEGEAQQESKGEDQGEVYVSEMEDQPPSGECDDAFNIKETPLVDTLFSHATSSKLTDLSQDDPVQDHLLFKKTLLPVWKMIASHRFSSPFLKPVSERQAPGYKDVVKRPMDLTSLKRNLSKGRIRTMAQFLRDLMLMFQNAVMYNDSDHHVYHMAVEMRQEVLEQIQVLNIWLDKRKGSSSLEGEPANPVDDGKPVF
Method: as §1, §2

KIAA1240 = target: T5, KIAA1240 (Homo sapiens, UniProt Q9ULI0); test: Thermal shift assay, KIAA1240
T5 construct: purchased in-house (SGC bromodomain thermal shift / AlphaScreen panel)
T5 sequence (Q9ULI0 1-1458): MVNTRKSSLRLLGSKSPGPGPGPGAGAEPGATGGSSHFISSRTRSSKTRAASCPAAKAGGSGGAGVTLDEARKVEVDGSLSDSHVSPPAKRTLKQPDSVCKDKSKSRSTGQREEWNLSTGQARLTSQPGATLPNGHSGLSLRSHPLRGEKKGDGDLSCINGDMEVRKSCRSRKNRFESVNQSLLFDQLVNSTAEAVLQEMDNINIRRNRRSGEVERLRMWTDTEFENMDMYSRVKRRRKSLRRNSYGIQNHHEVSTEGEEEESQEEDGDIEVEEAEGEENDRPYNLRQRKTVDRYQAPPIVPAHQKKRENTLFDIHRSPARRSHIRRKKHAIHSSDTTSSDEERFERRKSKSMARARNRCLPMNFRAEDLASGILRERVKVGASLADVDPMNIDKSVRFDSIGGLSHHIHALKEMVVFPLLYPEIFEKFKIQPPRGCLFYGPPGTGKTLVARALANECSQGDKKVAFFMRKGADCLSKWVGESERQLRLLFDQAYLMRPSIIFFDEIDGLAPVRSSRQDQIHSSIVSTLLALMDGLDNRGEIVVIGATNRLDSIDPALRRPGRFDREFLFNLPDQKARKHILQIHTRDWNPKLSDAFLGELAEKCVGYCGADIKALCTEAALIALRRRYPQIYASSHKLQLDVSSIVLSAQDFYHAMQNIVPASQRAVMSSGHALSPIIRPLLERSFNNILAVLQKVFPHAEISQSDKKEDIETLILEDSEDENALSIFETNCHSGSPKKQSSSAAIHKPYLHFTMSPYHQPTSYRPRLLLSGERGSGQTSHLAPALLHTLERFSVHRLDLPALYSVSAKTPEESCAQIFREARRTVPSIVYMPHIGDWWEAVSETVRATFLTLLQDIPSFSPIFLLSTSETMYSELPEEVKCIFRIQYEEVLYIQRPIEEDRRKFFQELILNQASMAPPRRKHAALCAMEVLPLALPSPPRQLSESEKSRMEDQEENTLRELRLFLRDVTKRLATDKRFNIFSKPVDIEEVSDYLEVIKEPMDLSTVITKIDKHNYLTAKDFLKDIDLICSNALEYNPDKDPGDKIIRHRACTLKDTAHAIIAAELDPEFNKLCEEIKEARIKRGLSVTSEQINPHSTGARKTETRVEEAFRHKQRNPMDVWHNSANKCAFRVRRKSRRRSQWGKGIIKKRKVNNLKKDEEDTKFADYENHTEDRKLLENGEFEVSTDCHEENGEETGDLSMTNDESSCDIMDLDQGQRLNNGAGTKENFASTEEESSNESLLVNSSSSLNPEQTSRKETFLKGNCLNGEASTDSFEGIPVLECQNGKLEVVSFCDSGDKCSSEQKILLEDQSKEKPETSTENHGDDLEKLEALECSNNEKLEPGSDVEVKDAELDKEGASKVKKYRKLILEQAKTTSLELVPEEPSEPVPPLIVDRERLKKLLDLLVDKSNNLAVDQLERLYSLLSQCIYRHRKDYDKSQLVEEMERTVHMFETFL
Method: as §1, §2

MLL = target: T6, MLL (Homo sapiens, UniProt Q03164); test: Thermal shift assay, MLL
T6 construct: purchased in-house (SGC bromodomain thermal shift / AlphaScreen panel)

PB1(3) = target: T7, PB1(3) (Homo sapiens, UniProt Q86U86); test: Thermal shift assay, PB1(3)
T7 construct: PB1(3); purchased in-house (SGC bromodomain thermal shift / AlphaScreen panel)
T7 sequence (Q86U86 388-494 limits assumed): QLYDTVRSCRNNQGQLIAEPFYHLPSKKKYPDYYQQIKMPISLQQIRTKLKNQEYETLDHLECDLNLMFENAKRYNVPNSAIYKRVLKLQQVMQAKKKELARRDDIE
Method: as §1, §2

SP140 = target: T8, SP140 (Homo sapiens, UniProt Q13342); test: Thermal shift assay, SP140
T8 construct: purchased in-house (SGC bromodomain thermal shift / AlphaScreen panel)
T8 sequence (Q13342 whole entry): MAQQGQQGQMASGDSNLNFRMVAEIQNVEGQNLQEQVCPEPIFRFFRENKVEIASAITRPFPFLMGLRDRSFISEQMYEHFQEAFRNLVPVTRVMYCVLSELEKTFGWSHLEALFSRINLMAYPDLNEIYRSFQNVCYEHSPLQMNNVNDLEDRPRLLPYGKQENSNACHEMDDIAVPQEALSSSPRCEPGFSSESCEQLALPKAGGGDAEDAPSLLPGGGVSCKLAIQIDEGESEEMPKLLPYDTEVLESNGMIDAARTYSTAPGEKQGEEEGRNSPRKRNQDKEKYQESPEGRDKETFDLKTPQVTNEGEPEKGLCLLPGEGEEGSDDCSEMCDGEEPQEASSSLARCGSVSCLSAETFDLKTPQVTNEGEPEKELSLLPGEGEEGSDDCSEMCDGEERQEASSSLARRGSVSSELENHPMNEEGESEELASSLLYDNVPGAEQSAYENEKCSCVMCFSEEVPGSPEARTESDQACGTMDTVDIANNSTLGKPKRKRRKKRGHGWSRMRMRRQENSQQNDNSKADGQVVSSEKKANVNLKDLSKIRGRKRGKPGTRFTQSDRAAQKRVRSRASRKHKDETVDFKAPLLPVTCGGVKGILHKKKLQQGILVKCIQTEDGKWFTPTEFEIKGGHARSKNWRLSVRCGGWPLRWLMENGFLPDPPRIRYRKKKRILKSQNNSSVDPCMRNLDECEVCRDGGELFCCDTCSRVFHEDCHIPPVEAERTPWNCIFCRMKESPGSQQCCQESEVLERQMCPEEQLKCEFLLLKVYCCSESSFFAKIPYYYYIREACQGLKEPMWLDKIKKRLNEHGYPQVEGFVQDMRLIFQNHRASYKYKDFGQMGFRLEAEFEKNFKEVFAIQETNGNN
Method: as §1, §2

T1 sequence (Q9UIF8 whole entry): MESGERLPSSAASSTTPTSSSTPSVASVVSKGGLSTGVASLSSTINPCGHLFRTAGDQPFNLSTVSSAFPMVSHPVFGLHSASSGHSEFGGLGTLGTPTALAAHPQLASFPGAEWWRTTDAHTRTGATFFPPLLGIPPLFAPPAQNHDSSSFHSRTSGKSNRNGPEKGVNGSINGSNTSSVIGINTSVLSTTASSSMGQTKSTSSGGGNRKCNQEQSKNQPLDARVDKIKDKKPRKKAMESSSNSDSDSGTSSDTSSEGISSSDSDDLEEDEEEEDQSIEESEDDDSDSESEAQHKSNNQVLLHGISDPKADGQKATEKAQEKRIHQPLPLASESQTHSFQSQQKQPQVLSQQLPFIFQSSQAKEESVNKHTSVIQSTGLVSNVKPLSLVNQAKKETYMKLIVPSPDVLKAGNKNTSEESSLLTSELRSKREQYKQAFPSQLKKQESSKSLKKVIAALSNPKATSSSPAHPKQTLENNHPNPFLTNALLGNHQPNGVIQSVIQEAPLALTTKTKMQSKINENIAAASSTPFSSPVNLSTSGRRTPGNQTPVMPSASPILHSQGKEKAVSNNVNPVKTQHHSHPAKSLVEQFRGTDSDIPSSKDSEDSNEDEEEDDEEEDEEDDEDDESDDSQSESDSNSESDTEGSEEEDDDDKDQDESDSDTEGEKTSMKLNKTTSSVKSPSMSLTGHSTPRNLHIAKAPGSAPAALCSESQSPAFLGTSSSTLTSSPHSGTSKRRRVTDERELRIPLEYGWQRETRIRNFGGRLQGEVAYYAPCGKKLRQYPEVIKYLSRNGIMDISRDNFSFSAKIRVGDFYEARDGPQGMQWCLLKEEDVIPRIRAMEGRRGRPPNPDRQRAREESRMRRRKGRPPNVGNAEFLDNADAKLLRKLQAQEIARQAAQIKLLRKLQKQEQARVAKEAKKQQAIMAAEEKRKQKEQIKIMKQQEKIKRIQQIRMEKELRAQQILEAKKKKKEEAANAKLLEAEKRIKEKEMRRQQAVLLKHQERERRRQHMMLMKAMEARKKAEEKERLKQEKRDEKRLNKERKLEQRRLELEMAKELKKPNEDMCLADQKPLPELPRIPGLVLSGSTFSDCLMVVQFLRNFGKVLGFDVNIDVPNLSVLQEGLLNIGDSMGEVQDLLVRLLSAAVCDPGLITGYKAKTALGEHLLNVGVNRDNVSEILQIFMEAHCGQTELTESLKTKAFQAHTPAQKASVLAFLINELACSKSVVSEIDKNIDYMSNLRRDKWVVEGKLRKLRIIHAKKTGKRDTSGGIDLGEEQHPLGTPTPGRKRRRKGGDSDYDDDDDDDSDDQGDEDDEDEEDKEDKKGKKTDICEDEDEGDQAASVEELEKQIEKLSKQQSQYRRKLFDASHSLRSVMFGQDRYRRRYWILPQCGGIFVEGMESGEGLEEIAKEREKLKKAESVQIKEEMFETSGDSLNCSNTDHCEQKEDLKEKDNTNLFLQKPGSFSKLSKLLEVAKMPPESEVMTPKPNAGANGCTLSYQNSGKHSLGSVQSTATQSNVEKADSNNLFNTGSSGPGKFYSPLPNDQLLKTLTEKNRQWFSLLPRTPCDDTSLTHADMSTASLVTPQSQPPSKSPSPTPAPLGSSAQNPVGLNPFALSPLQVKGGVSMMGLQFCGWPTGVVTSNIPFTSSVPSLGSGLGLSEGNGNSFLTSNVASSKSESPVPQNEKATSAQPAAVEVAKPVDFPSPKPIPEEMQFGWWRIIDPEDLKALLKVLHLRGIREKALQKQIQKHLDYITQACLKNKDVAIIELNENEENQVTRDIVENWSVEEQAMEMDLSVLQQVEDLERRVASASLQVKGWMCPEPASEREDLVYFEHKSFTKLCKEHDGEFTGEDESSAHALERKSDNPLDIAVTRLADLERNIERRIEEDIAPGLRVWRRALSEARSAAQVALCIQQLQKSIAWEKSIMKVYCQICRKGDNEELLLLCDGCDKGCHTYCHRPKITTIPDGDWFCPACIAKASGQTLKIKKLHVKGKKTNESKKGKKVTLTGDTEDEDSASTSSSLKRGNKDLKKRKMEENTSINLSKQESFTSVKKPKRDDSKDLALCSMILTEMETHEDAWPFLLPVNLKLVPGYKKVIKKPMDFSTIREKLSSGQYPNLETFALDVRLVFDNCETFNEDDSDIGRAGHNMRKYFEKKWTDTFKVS

Compound | Thermal stabilisation, BAZ2B (BAZ2B; 10 µM compound concentration) | Thermal stabilisation, BRD2(1) (BRD2(1); 10 µM compound concentration) | Thermal stabilisation, BRD3(2) (BRD3(2); 10 µM compound concentration) | Thermal stabilisation, BRD8 (BRD8; 10 µM compound concentration) | Thermal stabilisation, KIAA1240 (KIAA1240; 10 µM compound concentration) | Thermal stabilisation, MLL (MLL; 10 µM compound concentration) | Thermal stabilisation, PB1(3) (PB1(3); 10 µM compound concentration) | Thermal stabilisation, SP140 (SP140; 10 µM compound concentration) | Thermal stabilisation, BAZ2B (BAZ2B; 50 μM compound) | Thermal stabilisation, BRD2(1) (BRD2(1); 50 μM compound) | Thermal stabilisation, BRD3(2) (BRD3(2); 50 μM compound) | Thermal stabilisation, BRD8 (BRD8; 50 μM compound) | Thermal stabilisation, KIAA1240 (KIAA1240; 50 μM compound) | Thermal stabilisation, MLL (MLL; 50 μM compound) | Thermal stabilisation, PB1(3) (PB1(3); 50 μM compound) | Thermal stabilisation, SP140 (SP140; 50 μM compound)
CCOC(=O)Nc1cc(-c2ccc(C)c(NS(C)(=O)=O)c2)nn2c(C)nnc12 [Bromosporine, reference compound] | 1.385 | 4.46 | 6.56 | 0.74 | 0.59 | 0.75 | 0.24 | -1.045 | – | – | – | – | – | – | – | –
COC(=O)c1ccc(C(=O)Nc2ccc3[nH]c(CN4CCCCC4)nc3c2)cc1 [Compound 1] | – | – | – | – | – | – | – | – | 0.57 | 1.345 | 0.675 | -1.225 | 0.355 | -0.18 | 1.5 | -0.15
C[C@H]1CCCN1Cc1nc2cc(NC(=O)c3ccc4c(cnn4C)c3)ccc2[nH]1 [Compound 92] | – | – | – | – | – | – | – | – | 0.155 | -0.28 | -0.1 | -0.715 | 0.15 | -1.31 | 1.09 | -0.915
